Activity calls are given as the source filed them. No cut-off for these calls is given here.

In series [1] the target is T1, NADPH oxidase 2 (Homo sapiens, UniProt P04839).
T1 sequence (P04839 whole entry): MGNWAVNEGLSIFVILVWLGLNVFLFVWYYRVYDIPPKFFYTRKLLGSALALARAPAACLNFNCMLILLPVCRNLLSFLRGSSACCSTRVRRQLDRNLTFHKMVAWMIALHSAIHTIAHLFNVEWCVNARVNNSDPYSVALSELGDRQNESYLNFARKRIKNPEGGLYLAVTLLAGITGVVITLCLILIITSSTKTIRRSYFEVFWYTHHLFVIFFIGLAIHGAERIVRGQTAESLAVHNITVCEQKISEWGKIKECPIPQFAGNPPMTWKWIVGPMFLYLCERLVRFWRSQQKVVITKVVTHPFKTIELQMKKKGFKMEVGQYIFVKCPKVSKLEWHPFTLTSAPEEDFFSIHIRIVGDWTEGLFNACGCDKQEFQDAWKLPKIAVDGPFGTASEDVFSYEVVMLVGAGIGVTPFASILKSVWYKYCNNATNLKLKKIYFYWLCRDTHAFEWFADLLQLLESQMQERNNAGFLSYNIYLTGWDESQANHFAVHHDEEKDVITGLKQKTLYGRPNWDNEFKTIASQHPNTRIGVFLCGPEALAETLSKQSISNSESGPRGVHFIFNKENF
In words: Inhibition of human NOX2.

Series [2] has as its target T2, NADPH oxidase 4 (Homo sapiens, UniProt Q9NPH5).
T2 sequence (Q9NPH5 whole entry): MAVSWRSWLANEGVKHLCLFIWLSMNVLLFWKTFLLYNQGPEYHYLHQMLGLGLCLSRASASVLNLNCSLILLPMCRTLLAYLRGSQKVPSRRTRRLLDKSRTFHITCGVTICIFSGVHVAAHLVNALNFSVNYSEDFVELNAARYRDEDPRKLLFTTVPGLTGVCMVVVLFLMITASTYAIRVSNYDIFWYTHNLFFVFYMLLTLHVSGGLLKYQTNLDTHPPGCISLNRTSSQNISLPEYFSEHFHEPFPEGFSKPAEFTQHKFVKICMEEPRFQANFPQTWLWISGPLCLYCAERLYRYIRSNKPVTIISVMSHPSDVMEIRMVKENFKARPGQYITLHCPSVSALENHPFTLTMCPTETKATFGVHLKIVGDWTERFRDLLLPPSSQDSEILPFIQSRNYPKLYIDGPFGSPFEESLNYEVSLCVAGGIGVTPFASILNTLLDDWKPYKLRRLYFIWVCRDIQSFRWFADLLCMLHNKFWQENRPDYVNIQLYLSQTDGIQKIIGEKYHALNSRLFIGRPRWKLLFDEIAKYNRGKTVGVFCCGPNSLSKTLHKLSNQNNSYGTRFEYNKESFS
Put plainly: Inhibition of human NOX4.

Series [3] has as its target T3, NADPH oxidase 5 (Homo sapiens, UniProt Q96PH1).
T3 sequence (Q96PH1 whole entry): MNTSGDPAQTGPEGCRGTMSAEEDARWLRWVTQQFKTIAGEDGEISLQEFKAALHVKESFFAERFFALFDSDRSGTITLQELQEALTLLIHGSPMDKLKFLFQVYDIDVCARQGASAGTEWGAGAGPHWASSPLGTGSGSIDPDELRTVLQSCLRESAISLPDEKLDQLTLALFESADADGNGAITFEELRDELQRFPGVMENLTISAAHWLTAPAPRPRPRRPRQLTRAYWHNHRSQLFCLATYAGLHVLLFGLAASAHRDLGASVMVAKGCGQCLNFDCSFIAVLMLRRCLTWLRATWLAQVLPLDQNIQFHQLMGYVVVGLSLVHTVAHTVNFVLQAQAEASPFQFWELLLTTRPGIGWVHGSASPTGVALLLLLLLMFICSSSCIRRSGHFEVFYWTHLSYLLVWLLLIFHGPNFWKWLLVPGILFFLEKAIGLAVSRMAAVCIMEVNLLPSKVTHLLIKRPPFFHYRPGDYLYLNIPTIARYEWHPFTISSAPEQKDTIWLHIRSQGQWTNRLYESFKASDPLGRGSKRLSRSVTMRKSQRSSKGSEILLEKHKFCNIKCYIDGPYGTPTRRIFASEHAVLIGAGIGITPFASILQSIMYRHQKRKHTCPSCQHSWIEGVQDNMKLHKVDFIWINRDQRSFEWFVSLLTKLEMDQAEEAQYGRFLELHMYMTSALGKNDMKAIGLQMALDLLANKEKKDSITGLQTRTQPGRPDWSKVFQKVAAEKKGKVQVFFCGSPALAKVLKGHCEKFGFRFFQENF
Put plainly: Inhibition of human NOX5.

The target in series [4] is T4, NADPH oxidase 1 (Homo sapiens, UniProt Q9Y5S8).
T4 sequence (Q9Y5S8 whole entry): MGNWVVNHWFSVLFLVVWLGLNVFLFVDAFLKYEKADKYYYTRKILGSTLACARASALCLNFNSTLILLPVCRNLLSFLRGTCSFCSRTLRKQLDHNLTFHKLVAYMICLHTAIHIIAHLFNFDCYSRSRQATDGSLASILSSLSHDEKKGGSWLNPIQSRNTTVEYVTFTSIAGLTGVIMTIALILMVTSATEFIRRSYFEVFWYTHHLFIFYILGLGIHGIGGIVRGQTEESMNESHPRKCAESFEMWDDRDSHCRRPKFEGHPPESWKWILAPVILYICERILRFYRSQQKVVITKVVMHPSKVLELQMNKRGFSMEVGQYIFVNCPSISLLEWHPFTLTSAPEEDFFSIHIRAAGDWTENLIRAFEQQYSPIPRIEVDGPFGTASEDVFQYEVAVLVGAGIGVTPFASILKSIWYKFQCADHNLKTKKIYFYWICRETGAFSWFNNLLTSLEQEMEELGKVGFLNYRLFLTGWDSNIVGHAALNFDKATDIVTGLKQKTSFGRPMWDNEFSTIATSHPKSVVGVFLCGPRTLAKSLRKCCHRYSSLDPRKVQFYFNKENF
In words: Inhibition of human NOX1.

In series [5] the target is T1, NADPH oxidase 2. Put plainly: Inhibition of human NOX2 by cell based assay.
Series [6] deals with Albumin (Bos taurus, UniProt P02769). Put plainly: Binding affinity to bovine serum albumin 5 to 20 uM incubated for 30 mins by mass spectrometry analysis. The note with it: cattle, isolated protein, 0.5 h, dose 5-20 µM. The class given is ADME.
Series [7] has as its system BV-2. Put plainly: Neuroprotective activity against LPS/IFN-gamma induced mouse BV-2 cells assessed as effect on cell viability at 10 uM incubated for 48 hrs by MTT assay. The class given is functional, cell-based. On the technique in general: Tetrazolium dyes change colour on reduction, which living cells bring about.
The subject of series [8] is BV-2. Put plainly: Neuroprotective activity against LPS/IFN-gamma induced mouse BV-2 cells assessed as reduction in ROS level by measuring change in fluorescence intensity at 10 uM incubated for 48 hrs by CellROX reagent based fluorescence analysis. The class given is functional, cell-based.

Chain of Albumin (P02769 whole entry): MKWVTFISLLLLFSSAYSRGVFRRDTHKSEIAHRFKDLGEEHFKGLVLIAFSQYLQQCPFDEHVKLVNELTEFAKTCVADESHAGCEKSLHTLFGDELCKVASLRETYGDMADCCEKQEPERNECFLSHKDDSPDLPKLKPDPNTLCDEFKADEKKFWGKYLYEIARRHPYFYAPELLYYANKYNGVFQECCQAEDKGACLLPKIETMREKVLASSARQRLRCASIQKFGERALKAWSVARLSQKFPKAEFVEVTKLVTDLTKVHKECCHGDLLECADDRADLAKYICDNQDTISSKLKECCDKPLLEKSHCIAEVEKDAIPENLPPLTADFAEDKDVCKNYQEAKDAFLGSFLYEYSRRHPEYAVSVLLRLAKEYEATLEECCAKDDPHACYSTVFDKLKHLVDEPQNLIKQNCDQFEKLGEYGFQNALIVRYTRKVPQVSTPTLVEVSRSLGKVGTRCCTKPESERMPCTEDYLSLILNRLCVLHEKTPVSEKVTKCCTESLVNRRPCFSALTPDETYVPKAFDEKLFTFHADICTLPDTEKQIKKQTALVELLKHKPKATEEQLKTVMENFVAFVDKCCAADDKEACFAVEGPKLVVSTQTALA

With `Clc1ncnc2c1nnn2Cc1ccccc1`, the IC50 was found to be 5.1 µM in series [1] and 5.7 µM in series [2].

Turning to `c1ccc(-c2cc(NC3CCNCC3)nc3ccccc23)cc1`, the half-maximal inhibitory concentration (IC50) in series [3] came to 28 µM; in series [4], 71.2 µM; in series [1] it was 7.7 µM; in series [2], 81.2 µM. For the same compound, the midpoint of the response in series [5], the EC50, lay at 5.7 µM.

For the compound `O=C1c2ccccc2-c2cc(N3CCC4(CC3)OCCO4)nc3cccc1c23`, the values for the IC50 in series [1] and in series [2] were 5.1 µM and 5.7 µM, respectively. The EC50 in series [5] worked out at 2.1 µM.

As to `C#CCN(C)Cc1ccc(Cn2nnc3c(Sc4nc5ccccc5o4)ncnc32)cc1`, in series [6], the Activity result is given as “Not_active”. The outcome in series [7] and in series [8] was Active.

As to `C#CCN[C@@H]1CCc2ccccc21`, the result in series [7] was Active.

As for `c1ccc(Cn2nnc3c(Sc4nc5ccccc5o4)ncnc32)cc1`, the outcome in series [8] was Active.

What is called IC50 is the concentration needed to halve the response being measured. Lower therefore signals greater potency. Usually EC50 stands for the concentration giving half of the maximal effect. The low end stands for higher potency in that assay, the high end for lower potency in that assay.

The values above are taken from ChEMBL document CHEMBL6115021, “Design of Benzyl-triazolopyrimidine-Based NADPH Oxidase Inhibitors Leads to the Discovery of a Potent Dual Covalent NOX2/MAOB Inhibitor” (J Med Chem, 2025).
